Assays:
Target C [1] = experiment: RT-qPCR canonical junction panel assay, Target C mRNA; assay type: cell-based; details: Table 4, read-out: Target C IC50 (decrease in CJ mRNA levels)
Method in brief: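 IC50 is the concentration giving 50% CJ decrease, from a 4-parameter logistic fit of percent response; response derived from ΔΔCt against housekeeper and DMSO over a fixed ΔCt window, with canonical exon-junction qPCR in compound-treated K562 or A673 cells.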

Target C [2] = experiment: HiBiT protein abundance assay, Target C (K562 HiBiT knock-in); assay type: cell-based, human; details: HiBiT knock-in K562 cells, 24 hours, top dose 10 μM
Method in brief: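 K562 HiBiT knock-in cells (10000/well) were treated 24 h at 37° C with a 10-point 3-fold dilution series (top 10 μM final, ≤0.25% DMSO). HiBiT luminescence was read after lytic LgBiT detection. Percent response used unmodified K562 and DMSO-treated knock-in controls, and IC50 came from a four-parameter fit at 50% of untreated.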

Structure (SMILES)	IC50 (Target C [1]) [µM]	IC50 (Target C [2]) [µM]
Cn1cc2cc(-c3ccc4nc(N5CCC(NC67CC(O)(C6)C7)C5)ccc4n3)c(O)cc2n1 (centres unmarked) [Compound 341, 5-{6-[3-({3-hydroxybicyclo[1.1.1]pentan-1-yl}amino)pyrrolidin-1-yl]-1,5-naphthyridin-2-yl}-2-methylindazol-6-ol]	0.1 to 1	< 0.1
Cc1c(O)c(-c2ncc3nc(N4CCC5(CCN5)C4)ccc3n2)cc2cn(C)nc12 (centres unmarked) [Compound 342, 5-(6-{1,6-diazaspiro[3.4]octan-6-yl}pyrido[3,2-d]pyrimidin-2-yl)-2,7-dimethylindazol-6-ol]	0.1 to 1	0.1 to 1
Cc1cc2nc(-c3ccc4nc(N5CCC(NC(C)(C)C)C5)ccc4n3)cn2c(C)n1 (centres unmarked) [Compound 344, N-tert-butyl-1-(6-{5,7-dimethylimidazo[1,2-c]pyrimidin-2-yl}-1,5-naphthyridin-2-yl)pyrrolidin-3-amine]	> 10	1 to 10
Cc1nc2cc(O)c(-c3ccc4nc(N5CC[C@H](N[C@H]6C[C@H](F)C6)C5)ccc4n3)cc2o1 [Compound 350, 2-methyl-6-{6-[(3S)-3-{[(1r,3r)-3-fluorocyclobutyl]amino}pyrrolidin-1-yl]-1,5-naphthyridin-2-yl}-1,3-benzoxazol-5-ol]	0.1 to 1	0.1 to 1

Second part, the compound after the results:

IC50 (Target C [1]) [µM]	IC50 (Target C [2]) [µM]	Structure (SMILES)
0.1 to 1	0.1 to 1	Cc1nc2cc(O)c(-c3ccc4nc(N5CCC(NC(C)(C)C)C5)ccc4n3)cc2n1C (centres unmarked) [Compound 339, 6-{6-[3-(tert-butylamino)pyrrolidin-1-yl]-1,5-naphthyridin-2-yl}-1,2-dimethyl-1,3-benzodiazol-5-ol]
0.1 to 1	0.1 to 1	Cc1nc2cc(-c3ccc4nc(N5CCC(NC(C)(C)C)C5)ccc4n3)c(O)cc2n1C (centres unmarked) [Compound 340, 6-{6-[3-(tert-butylamino)pyrrolidin-1-yl]-1,5-naphthyridin-2-yl}-2,3-dimethyl-1,3-benzodiazol-5-ol]
1 to 10	1 to 10	CCc1nc2cc(O)c(-c3ccc4nc(N5CCC(NC(C)(C)C)C5)ccc4n3)cc2o1 (centres unmarked) [Compound 346, 6-{6-[3-(tert-butylamino)pyrrolidin-1-yl]-1,5-naphthyridin-2-yl}-2-ethyl-1,3-benzoxazol-5-ol]
